Format in all cases: cell-based, human
In assay [1] the test system is HTT mRNA. The assay is described as follows: RT-qPCR splicing assay, HTT canonical (CJ) and alternative (AJ) junction mRNA. The settings on record: for AC50: read-out: HTT AJ (AC50, increase in AJ mRNA). The method, boiled down:
(§1)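 Junction-specific RT-qPCR read the canonical exon-exon junction and the compound-induced alternative-exon junction, normalized to GAPDH, GUSB or PPIA and then to DMSO (2^(-ΔΔCt)). Input was lysate from A673 or K562 cells exposed for 24 h to compound up to 10 uM.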

Assay [2] relates to MYB mRNA. Kind of assay: RT-qPCR splicing assay, MYB canonical (CJ) and alternative (AJ) junction mRNA. The settings on record: for AC50: read-out: MYB AJ (AC50, increase in AJ mRNA). The procedure, abridged: as §1
Background: Quantitative PCR measures a nucleic acid by following its amplification.

In assay [3] the test system is SMN2 mRNA. The assay is described as follows: RT-qPCR splicing assay panel, SMN2 canonical junction (CJ) mRNA. The settings on record: canonical junction (CJ) mRNA, RT-qPCR panel, Table 4A, read-out: SMN2, decrease in CJ mRNA levels, IC50. The method, boiled down:
as §1

The test system of assay [4] is Target C mRNA. Kind of assay: RT-qPCR splicing assay panel, Target C canonical junction (CJ) mRNA. The settings on record: Homo sapiens, canonical junction (CJ) mRNA, RT-qPCR panel, Table 4A; read-out: Target C, decrease in CJ mRNA levels, IC50. The procedure, abridged:
as §1

[5] abbreviates: Homo sapiens, 24 h, Table 3A, A673 or K562 cells, 24 h treatment.
The mark [6] stands for this setting: Homo sapiens, 24 h, Table 3A, A673 or K562 cells, 24 h treatment, read-out: HTT CJ (IC50, decrease in CJ mRNA).
The mark [7] stands for this setting: Homo sapiens, canonical junction (CJ) mRNA, RT-qPCR panel, Table 4A, read-out: HTT, decrease in CJ mRNA levels, IC50.
Setting [8] is: Homo sapiens, 24 h, Table 3A, A673 or K562 cells, 24 h treatment, read-out: MYB CJ (IC50, decrease in CJ mRNA).
[9] abbreviates: Homo sapiens, canonical junction (CJ) mRNA, RT-qPCR panel, Table 4A, read-out: MYB, decrease in CJ mRNA levels, IC50.
Setting [10] is: Table 3A, A673 or K562 cells, 24 h treatment.

Where two headings read alike, the source gives them in different places.

For `Cc1cn2nc(-c3ccc(-c4ccc(N5CCC(NC6CCC6)C5)nn4)c(O)c3)cc(C)c2n1` (stereo not shown) [Compound 317], the AC50 in assay [1] (setting [5]) and in assay [2] (setting [5]) was 100 to 1000 nM in each case. The IC50 (in general, the concentration that inhibits the measured activity by half) in assay [1] (setting [6]) was less than 100 nM; in assay [1] (setting [7]), less than 100 nM; in assay [2] (setting [8]), 100 to 1000 nM; in assay [2] (setting [9]), 100 to 1000 nM; in assay [3] (Homo sapiens), 100 to 1000 nM; in assay [4], 100 to 1000 nM.
Take `COc1cc(-c2ccc(-c3ccc(N4CCC(NC5CCC5)C4)nn3)c(O)c2)c(F)cn1` (stereo not shown) [Compound 307]: the AC50 (as a rule, the concentration at which the activity in the assay is half-maximal) in assay [1] (setting [5]) was 1000 to 10000 nM; in assay [2] (setting [5]) it was greater than 10000 nM. The IC50 was 1000 to 10000 nM in assay [1] (setting [6]); 1000 to 10000 nM in assay [1] (setting [7]); greater than 10000 nM in assay [2] (setting [8]); greater than 10000 nM in assay [2] (setting [9]); 1000 to 10000 nM in assay [3] (Homo sapiens); greater than 10000 nM in assay [4].
For `Cc1nc(-c2ccc(-c3ccc(N4CCC(NC5CCC5)C4)nn3)c(O)c2)cs1` (stereo not shown) [Compound 412], the AC50 in assay [1] (setting [10]) and in assay [2] (setting [10]) was greater than 10000 nM each time. Moreover, the IC50 in assay [1] (Table 3A, A673 or K562 cells, 24 h treatment, read-out: HTT CJ (IC50, decrease in CJ mRNA)) was greater than 10000 nM; in assay [1] (canonical junction (CJ) mRNA, RT-qPCR panel, Table 4A, read-out: HTT, decrease in CJ mRNA levels, IC50), greater than 10000 nM; in assay [2] (Table 3A, A673 or K562 cells, 24 h treatment, read-out: MYB CJ (IC50, decrease in CJ mRNA)), greater than 10000 nM; in assay [2] (canonical junction (CJ) mRNA, RT-qPCR panel, Table 4A, read-out: MYB, decrease in CJ mRNA levels, IC50), greater than 10000 nM; in assay [3] it was greater than 10000 nM; in assay [4], greater than 10000 nM.
On to `Cc1ncc(-c2cc(O)c(-c3ccc(N4CC[C@](C)(NCC5CC5)C4)nn3)cc2F)s1` (single isomer, unassigned) [Compound 400], for which the AC50 in assay [1] (setting [5]) is less than 100 nM; in assay [2] (setting [5]), 100 to 1000 nM. Further, the IC50 is less than 100 nM in assay [1] (setting [6]); less than 100 nM in assay [1] (setting [7]); 100 to 1000 nM in assay [2] (setting [8]); 100 to 1000 nM in assay [2] (setting [9]); less than 100 nM in assay [3] (Homo sapiens); less than 100 nM in assay [4].
Take `Cc1nc(-c2cc(O)c(-c3ccc(N4CCC(NC5CCC5)C4)nn3)cc2F)cs1` (stereo not shown) [Compound 398]: the AC50 in assay [1] (setting [5]) and in assay [2] (setting [5]) was 1000 to 10000 nM throughout. The IC50 in assay [1] (setting [6]), in assay [1] (setting [7]), in assay [2] (setting [8]), in assay [2] (setting [9]), in assay [3] (Homo sapiens) and in assay [4] was 1000 to 10000 nM in each case.
In the case of `Cc1ncc(-c2cc(O)c(-c3cnc(OC4CC(C)(C)NC(C)(C)C4)nn3)cc2F)s1` [Compound 435], the AC50 in assay [1] (setting [5]) lay in the range of 100 to 1000 nM; in assay [2] (setting [5]), 1000 to 10000 nM. Also, the IC50 was 100 to 1000 nM in assay [1] (setting [6]); 100 to 1000 nM in assay [1] (setting [7]); 1000 to 10000 nM in assay [2] (setting [8]); 1000 to 10000 nM in assay [2] (setting [9]); less than 100 nM in assay [3] (Homo sapiens); 100 to 1000 nM in assay [4].
As for `COc1cc(-c2ccc(-c3ccc(N4CCC(N[C@H]5C[C@@H](OC)C5)C4)nn3)c(O)c2)cnn1` (stereo partly shown) [Compound 404, 5-(6-methoxypyridazin-4-yl)-2-[6-(3-{[(1s,3s)-3-methoxycyclobutyl]amino}pyrrolidin-1-yl)pyridazin-3-yl]phenol], the concentration at half-maximal activity (AC50) fell in the range of 100 to 1000 nM in assay [1] (setting [5]) and 1000 to 10000 nM in assay [2] (setting [5]). The half-maximal inhibitory concentration (IC50) in assay [1] (setting [6]) is less than 100 nM; in assay [1] (setting [7]), less than 100 nM; in assay [2] (setting [8]), 100 to 1000 nM; in assay [2] (setting [9]), 100 to 1000 nM; in assay [3] (Homo sapiens), less than 100 nM; in assay [4], 100 to 1000 nM.
In the case of `Cc1nnc(-c2cc(O)c(-c3ccc(N4CC[C@H](NCC5CC5)C4)nn3)cc2F)s1` [Compound 401], the concentration at half-maximal activity (AC50) in assay [1] (setting [5]) is 100 to 1000 nM; in assay [2] (setting [5]), 1000 to 10000 nM. For the same molecule, the IC50 in assay [1] (setting [6]) is 100 to 1000 nM; in assay [1] (setting [7]), 100 to 1000 nM; in assay [2] (setting [8]) it was 1000 to 10000 nM; in assay [2] (setting [9]) it was 1000 to 10000 nM; in assay [3] (Homo sapiens), 100 to 1000 nM; in assay [4] it was 100 to 1000 nM.

(Values after patent publication US20250333397A1 (REMIX THERAPEUTICS INC., priority 2021, published 2025).)
